Assay results: patent US20070105787A1, “Use of ribose in recovery from anaesthesia” (priority 2004, published 2007)

What was measured:
[1] = tested on: procedural pain in neonates; conditions: glucose solution on the tongue; cited from earlier work
[2] = tested on: recovery from general anaesthesia; assay: anecdotal reports, non-cardiac surgery with general anaesthesia; assay type: in vivo, human; conditions: person, vs first operation
Source text: A. Anecdotal Results from Non-Cardiac Surgery with General Anaesthesia. […] For example, a person underwent two hip replacement operations, five months apart. With the second operation, they began taking oral ribose immediately after their recovery from anaesthesia. Their recovery to a feeling of alertness and energy was more rapid than after the first operation. Furthermore, their level of pain was less. Likewise, a person also underwent two knee replacement operations. With the second operation, they self-administered D-Ribose pre- and postoperatively. Their recovery to a feeling of alertness and energy was more rapid than after the first operation. Bauer et al. (Z. Geb. Neonatal 2001 May-June, 205(3):80-85) studied the efficacy of oral glucose for treating procedural pain in neonates. […] The authors proposed that the orogustatory stimulation by the sweet taste caused an endorphin release. It is not known whether the result seen was due to the local effect or to a systemic effect of glucose.

[3] = tested on: Wistar rats, recovery from general anaesthesia; assay: planned rat sham abdominal surgery study under halothane anaesthesia; assay type: in vivo; conditions: D-Ribose before, during and after sham operation, vs D-Glucose placebo
Procedure: Littered-paired Wistar rats will be preconditioned with oral D-Ribose (250 mg/day, 10 animals) as a test drug or D-Glucose (250 mg/day, 10 animals) as a placebo for five days. Following the preconditioning, the rats will be anesthetized with halothane, intubated for artificial respiration and paralyzed with curare. Following general anaesthesia, the rats will be given either the test drug or placebo, intravenously (IV). A two-inch abdominal incision will be made and the viscera will be carefully manipulated to simulate an abdominal exploratory surgery. The incision will be closed and the animals will be held under anaesthesia for one additional hour. Following that hour, anaesthesia will be discontinued and the IV infusion will be halted. The animals will be placed individually in activity cages and their activity will be assessed daily for five days. Test drug or placebo will be added to the drinking water at a dosage of 5% wt/vol. The blinded results will be observed for: first movement (return to consciousness following the sham operation) and daily activity over the first day and next five days. Food and water intake and gastrointestinal function will be measured.

[4] = tested on: healthy dog hearts after 20 minute normothermic global myocardial ischemia; conditions: D-Ribose from reperfusion for at least four days; cited from earlier work
[5] = tested on: patients undergoing AVR with aortic cross clamping; assay: planned trial of preoperative oral plus intravenous D-Ribose before cross clamping (Example 3); assay type: in vivo, human; conditions: oral D-Ribose preloading plus IV 100 mg/kg/hour with D-Glucose, vs placebo
Source text: A single-center, randomized, double-blinded placebo-controlled clinical trial was designed to determine if preoperative oral administration of D-Ribose, following by peri-operative and operative intravenous infusion of D-Ribose could improve the ejection fraction and other functional parameters of hearts that are cross-clamped for various cardiac surgical procedures. Thirty (30) patients meeting the inclusion and exclusion criteria and who have signed informed consent forms will be randomized to receive oral D-Ribose (15) or D-Glucose (placebo) (15) for seven or 14 days prior to their surgical procedure and intravenous 5% […] (5% D-Glucose in normal saline, 0.5 mL/kg/hour) or 10% pyrogen-free D-Ribose in 5% D5W at a dose of 100 mg/kg/hour for five (5) days through a pulmonary artery cordis) beginning at the time of aortic cross clamping. […] Patients will be evaluated baseline×2, (once prior to beginning oral test supplement and again within three days prior to surgical procedure), during and after surgery, and at days 1, 5 and 7. […] Patients will be evaluated for eligibility within three days to first test article administration and evaluation will be updated within three days prior to surgery. […] A medication history will be taken and all medications recorded in the case report. […]

[6] = tested on: myocardial dysfunction resulting from globally induced ischemia during cardiac surgical procedures; assay type: in vivo, human
Source text: Inclusion criteria were: • Males or females aged 18 or older • Patients with documented coronary artery disease undergoing CABG with an ejection fraction (EF) of ≦35% based on echocardiography, radionuclide imaging or cardiac catheterization done within eight weeks of surgery. (If more than one method was used to evaluate EF during this period, the mean values of the various methods were ≦35%). • Patients undergoing single or double valve replacement with documented coronary artery disease also undergoing CABG; or patients undergoing single or double valve replacement without CABG • Serum creatinine of ≦2.35 mg/dl • For females of childbearing potential, a negative pregnancy test. • Signed consent forms. The test article, placebo or ribose, was dispensed according to computer-generated randomization schedule either for patients undergoing CABG only or for patients undergoing heart valve surgery +/-CABG. All patients received a high dose narcotic anaesthesia technique consisting of either fentanyl (50-100 μg/kg) or sufentanil (10-20 μg/kg) and midazolam. No restriction was placed on the type of anaesthetic agents administered. The anaesthesiologists and surgeons responsible for the care of the patents made the clinical decision to use inotropic support, intra-aortic balloon pump support or post bypass circulatory support based on their knowledge of patients requirements and accepted medical practice and without regard to test article status. The test article infusion was started intravenously at the time of aortic cross clamping and continued until the pulmonary artery catheters introducer was removed or for five days (120) hours whichever occurred first. The surgeons responsible for the clinical care of the patients removed the pulmonary artery catheter cordis without regard to test article stats. Hemodynamic measurements consisting of heart rate, blood pressure, pulmonary artery pressures, pulmonary capillary wedge pressure (PCWP), central venous pressure (CVP) and thermodilution cardiac index (CI) were obtained at the following time intervals: immediately prior to induction of anaesthesia, post induction of anaesthesia prior to sternotomy, post sternotomy prior to initiation of cardiopulmonary bypass, upon successful termination of cardiopulmonary bypass prior to sternal closure and prior to reversal of heparinization with protamine, post closure of the sternum, upon arrival in the intensive care unit and at one or two hour intervals until the pulmonary artery a catheter was removed. Transesophageal echocardiography data (H.P. Sonos OR, 5.0 MHz, Andover, Mass.) was collected at the following time intervals: post induction of anaesthesia prior to sternotomy, and immediately post closure of the sternum. Transthoracic echocardiography (H.P. Sonos 1500. 2.5 MHz, Andover, Mass.) measurements were made on day three and day seven of the study period. For both the transesophageal and transthoracic echocardiograms, the following long axis and short axis mid-papillary area changes were measured in triplicate by acoustic quantification techniques: end diastolic area (EDA), end systolic area (ESA), fractional area change (FAC), +dA/dt and -dA/dt. All area change data were also analyzed by manual off line analysis. EF was also determined off line using a long axis view. In addition, regional wall motion was quantified as the following: normal=1, hypokinetic=2, akinetic=3 and dyskinetic=4. The wall motion index score (WMIS) and percentage normal myocardium were calculated by reading a maximum of sixteen segments. Echocardiography data for evaluating wall motion and area change was analyzed only if greater than 75% of the endocardial border could be visualized through a complete cardiac cycle. […]

[7] = tested on: sheep undergoing aortic valve replacement under general anaesthesia
[8] = tested on: patients selected for OCBP revascularization; assay: presurgical oral ribose loading, off cardiopulmonary bypass (OCBP) revascularization trial; assay type: in vivo, human; conditions: oral D-ribose preoperatively (24 patients) vs no ribose (20), baseline to post-operative, p<0.028
Source text: Patients with stable coronary artery disease or patients presenting with acute myocardial infarction may undergo revascularization using an “off” cardiopulmonary bypass procedure (“OCBP”). This procedure avoids the deleterious effects of cross-clamping in patients who can be selected for the procedure. The selection criteria include: accessibility of the grafts; number of the grafts; condition of the patient. When the area to be revascularized is at the back of the heart, the heart will need to be handled and rotated, which would interfere with the beating of the heart. If several grafts are needed, the time of operation is prolonged and the patient's heart will need to support circulation for a long time. Finally, a poorly functioning heart will need the assistance of the pump to support circulation. Nevertheless, in properly selected patients, the benefits of avoiding cross-clamping are substantial.
Forty-four adult patients were enrolled in a trial. At least one-third of the patents had sustained an acute myocardial infarction prior to presentation and pre-operative ejection fractions ranged from 30-72%. All patients were selected for OCBP revascularization with 20 patients comsuming no pre-operative ribose and 24 patients given oral D-ribose preoperatively, cardiac indices were measured at baseline and post-operatively. […]

[9] = second hip replacement, oral ribose after anaesthesia

| SMILES | degree of pain experienced during venous blood sampling [1] | level of pain [2, 9] | recovery to a feeling of alertness and energy [2, 9] | recovery to a feeling of alertness and energy ([2]; second knee replacement, D-Ribose pre- and postoperatively) | expected movement after anaesthesia and activity during the following five days [3] | ATP recovery [4] | expected myocardial function and recovery [5] | patients who developed hypoglycemia (fingerstick glucose<70 mg/dl) ([6]; both, human, in vivo) [%] | lowest glucose level ([6]; human, in vivo) [mg/dL] | mean glucose level in those patients developing hypoglycemia ([6]; human, in vivo) [mg/dL] | neurological or other clinical symptoms associated with hypoglycemia ([6]; human, in vivo) | mean Day 7 EF ([6]; ribose treated patients, Day 7, echocardiography, IV 100 mg/kg/hr, p=0.49 vs baseline) [%] | mean baseline EF ([6]; ribose treated patients, baseline, echocardiography, IV 100 mg/kg/hr) [%] | change of EF from baseline to Day 7 ([6]; ribose treated patients, placebo EF declined, treatment effect p=0.04) | tolerability (metabolic or chemical abnormalities) ([7]; in vivo, iv) | time quiet and inactive after extubation ([7]; sheep given ribose) | time to eating solid food ([7]; sheep given ribose, some animals, after the quiet period) | time to assume a consciousness state upon weaning from the ventilator ([7]; sheep, vs animals not given ribose) | time to cardiac arrest with cardioplegia ([7]; sheep, vs animals not given ribose, difference not statistically significant) | greater increase in cardiac indices compared to controls [8] [%] |
| --- | --- | --- | --- | --- | --- | --- | --- | --- | --- | --- | --- | --- | --- | --- | --- | --- | --- | --- | --- | --- |
| O=C[C@H](O)[C@@H](O)[C@H](O)[C@H](O)CO [glucose, D-Glucose] | reduced the degree of pain |  |  |  |  |  |  |  |  |  |  |  |  |  |  |  |  |  |  |  |
| O=C[C@H](O)[C@H](O)[C@H](O)CO [D-Ribose] |  | less | more rapid | more rapid | earlier movement after anaesthesia and increased activity | enhanced ATP recovery | better myocardial function | 28 | 31 | 58 | None of these patients developed neurological or other clinical symptoms | 41 | 44 | unchanged | no metabolic or chemical abnormalities | about one | within the next hour | faster | somewhat faster | 49 |
